{"source": "patent EP4667458A1", "about": "(Kanaph Therapeutics Inc., priority 2023, dated 2024)", "key": {"[1]": {"assay": "Cell viability with a combined anticancer agent plus Example B01 (Synergy 1 / Synergy 2)", "format": "cell-based", "settings": "culture time 72 h; printed in the anticancer agent concentration column"}, "SOS1": {"molecular_target": "T1, SOS1 (Homo sapiens, UniProt Q07889)", "T1 construct": "adding equal amounts of HIS-SOS1cat (160 nM; Cytoskeleton, US); His; purchased Cytoskeleton, US", "T1 sequence (Q07889 564-1049 limits assumed)": "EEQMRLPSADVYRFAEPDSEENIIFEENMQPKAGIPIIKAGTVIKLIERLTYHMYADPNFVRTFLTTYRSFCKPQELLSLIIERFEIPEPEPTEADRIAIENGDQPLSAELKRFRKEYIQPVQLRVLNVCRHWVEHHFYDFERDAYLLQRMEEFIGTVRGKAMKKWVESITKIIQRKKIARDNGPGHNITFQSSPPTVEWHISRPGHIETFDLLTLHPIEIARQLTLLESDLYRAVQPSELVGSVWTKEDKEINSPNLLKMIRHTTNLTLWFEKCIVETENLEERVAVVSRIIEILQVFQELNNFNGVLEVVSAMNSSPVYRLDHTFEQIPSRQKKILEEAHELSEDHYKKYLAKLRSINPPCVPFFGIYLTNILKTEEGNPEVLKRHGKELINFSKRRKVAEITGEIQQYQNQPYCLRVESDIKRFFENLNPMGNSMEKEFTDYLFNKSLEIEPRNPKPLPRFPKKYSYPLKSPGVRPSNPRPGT", "assay": "SOS-catalyzed nucleotide exchange assay (HTRF, SOS1-mediated GTP loading of KRAS G12D)", "format": "biochemical", "summary_of_the_method": "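SOS1cat (HIS-tagged) preincubated 10 min at room temperature with compound (128 pM-10 µM), then GST-KRAS G12D with anti-GST terbium added; GTP loading tracked as HTRF with a DY-647P1 GTP analogue after 30 min, buffer HEPES pH 7.4. GEF-free wells for normalization; IC50 derived.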"}, "[2]": {"test_system": "lung cancer cell line H358 having the KRAS G12C variant", "assay": "SynergyScreen determination of combination concentration (ATPlite 1Step cell viability)", "format": "cell-based", "settings": "EFFECT20 applied as final treatment concentration in the combination experiment", "method": "The cells were treated by adding 5 µL of a test solution of Example B01 per well to a 384 well plate in which the lung cancer cell line H358 having the KRAS G12C variant was dispensed so that the final concentration of the substance was 31.6 µM to 0.00316 µM in 50 µL of the solution per well. The cells treated with Example B01 were cultured under conditions of 37 °C and 5% carbon dioxide for 72 h or 120 h. In order to measure cell viability, each well was treated with 24 µL of ATPlite 1Step™ (PerkinElmer) solution, then mixed for 2 minutes, and reacted by blocking light for 5 minutes, and then the luminescence signal was measured using an Envision multilabel reader (PerkinElmer). The cell viability was determined according to the formula below, and the concentration (EFFECT20) of Example B01 that induces 20% cell death was calculated using IDBS XLfit 5. The EFFECT20 concentration of Example B01 determined through the experiment was applied as the final treatment concentration of Example B01 during the combination effect experiment. [formula]\nIn order to confirm the effect of Example B01 in combination with various anticancer agents, a total of 42 anticancer agents, including cytotoxic anticancer agents and targeted anticancer agents, were used for evaluation (Table 31). […]"}, "KRAS^G12C::SOS1": {"molecular_target": "T2, KRAS^G12C::SOS1 (Homo sapiens, UniProt Q07889)", "T2 sequence (Q07889 1-1333)": "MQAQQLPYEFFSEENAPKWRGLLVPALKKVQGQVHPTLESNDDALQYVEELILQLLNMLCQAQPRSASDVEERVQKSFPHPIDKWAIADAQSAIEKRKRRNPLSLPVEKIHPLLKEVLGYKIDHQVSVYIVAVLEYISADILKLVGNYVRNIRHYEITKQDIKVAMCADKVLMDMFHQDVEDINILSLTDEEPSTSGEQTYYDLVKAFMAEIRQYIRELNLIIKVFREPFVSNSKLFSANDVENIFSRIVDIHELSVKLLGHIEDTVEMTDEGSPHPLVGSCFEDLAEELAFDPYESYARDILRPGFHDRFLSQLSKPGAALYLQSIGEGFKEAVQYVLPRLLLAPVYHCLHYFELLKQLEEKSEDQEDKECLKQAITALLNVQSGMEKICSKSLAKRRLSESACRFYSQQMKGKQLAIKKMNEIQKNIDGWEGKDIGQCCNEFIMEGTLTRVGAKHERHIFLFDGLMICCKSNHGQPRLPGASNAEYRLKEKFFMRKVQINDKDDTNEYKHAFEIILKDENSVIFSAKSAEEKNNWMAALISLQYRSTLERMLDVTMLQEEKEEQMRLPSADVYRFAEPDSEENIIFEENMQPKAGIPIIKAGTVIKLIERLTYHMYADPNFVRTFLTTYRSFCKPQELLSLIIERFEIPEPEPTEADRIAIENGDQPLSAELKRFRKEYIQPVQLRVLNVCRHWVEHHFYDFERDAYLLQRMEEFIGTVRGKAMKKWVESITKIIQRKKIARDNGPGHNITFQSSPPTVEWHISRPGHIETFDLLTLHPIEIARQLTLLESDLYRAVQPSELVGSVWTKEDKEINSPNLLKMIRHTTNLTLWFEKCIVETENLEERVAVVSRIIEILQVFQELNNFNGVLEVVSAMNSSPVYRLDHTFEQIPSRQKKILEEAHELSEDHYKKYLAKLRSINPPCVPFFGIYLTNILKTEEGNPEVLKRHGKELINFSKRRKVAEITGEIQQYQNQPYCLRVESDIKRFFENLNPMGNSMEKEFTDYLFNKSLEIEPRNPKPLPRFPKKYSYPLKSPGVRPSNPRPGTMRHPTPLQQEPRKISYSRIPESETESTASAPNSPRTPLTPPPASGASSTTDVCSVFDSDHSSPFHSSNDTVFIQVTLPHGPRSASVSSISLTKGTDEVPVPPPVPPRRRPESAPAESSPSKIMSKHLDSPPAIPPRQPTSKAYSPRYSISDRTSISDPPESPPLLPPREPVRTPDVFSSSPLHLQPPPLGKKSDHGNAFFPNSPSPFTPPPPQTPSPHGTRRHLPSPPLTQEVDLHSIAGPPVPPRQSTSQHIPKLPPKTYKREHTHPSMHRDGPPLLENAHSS", "assay": "KRAS G12C::SOS1 protein-protein interaction (PPI) inhibition assay (HTRF binding kit)"}, "[3]": {"test_system": "lung cancer cell line NCI-H358 having the KRAS G12C variant", "assay": "Cell viability (Cell Titer-Glo) on combined administration, NCI-H358", "format": "cell-based", "description": "When the example compound was used in combination with an anticancer agent, the effect on the growth ability of cancer cells expressing KRAS variant or EGFR variant was confirmed. In order to confirm the effect of the example compound in combination with a MEK inhibitor or a KRAS G12C inhibitor in the cell line having the KRAS variant, the cell growth inhibitory effect by the treatment of the example compound in combination with a MEK inhibitor or a KRAS G12C inhibitor was confirmed in the gastric cancer cell line SNU-1 and the pancreatic cancer cell line KP4 having the KRAS G12D variant, the lung cancer cell line NCI-H358 and the pancreatic cancer cell line MIA PaCa-2 having the KRAS G12C variant, the colorectal cancer cell line SW480 having the KRAS G12V variant, the lung cancer cell line A549 having the KRAS G12S variant, the colorectal cancer cell line LoVo having the KRAS G13D variant. In addition, in order to confirm the effect of the example compound in combination with an EGFR inhibitor in the cell line having the EGFR variant, the cell growth inhibitory effect by the treatment of the example compound in combination with an EGFR inhibitor was confirmed in the lung cancer cell line H1975 having the EGFR L858R/T790M variant and the lung cancer cell line HCC827 having the EGFR Del19 variant. […]"}}}
{"smiles": "C[C@]12C=CC(=O)C=C1CC[C@@H]1[C@@H]2[C@@H](O)C[C@@]2(C)[C@H]1CC[C@]2(O)C(=O)CO", "note": "[Prednisolone, prednisolone]", "values": [{"measurement": "concentration dependence of the effect of the anticancer agent on cell viability", "setting": "[1]", "value": "No concentration -dependent change"}]}
{"smiles": "C[C@@H](NC(=O)c1ccc(=O)n(-c2cncc(-c3cnnn3C)c2)n1)c1cccc(C(F)(F)F)c1F", "note": "[Example B01, N-[(1R)-1-[2-fluoro-3-(trifluoromethyl)phenyl]ethyl]-1-[5-(3-methyltriazol-4-yl)-3-pyridyl]-6-oxo-pyridazine-3-carboxamide]", "values": [{"measurement": "IC50", "setting": "SOS1", "value": "< 1000", "unit": "nM"}, {"measurement": "concentration (EFFECT20) that induces 20% cell death", "setting": "[2]; culture time 72 h", "value": 1854, "unit": "nM"}, {"measurement": "concentration (EFFECT20) that induces 20% cell death", "setting": "[2]; culture time 120 h", "value": 652, "unit": "nM"}, {"measurement": "IC50", "setting": "KRAS^G12C::SOS1", "value": "< 1000", "unit": "nM"}]}
{"smiles": "CNCc1ccc(Cl)cc1-c1ccc([C@@H](C)NC(=O)c2ccc(=O)n(-c3ccccc3F)n2)s1", "note": "[Example 295, N-[(1R)-1-[5-[5-chloro-2-(methylaminomethyl)phenyl]-2-thienyl]ethyl]-1-(2-fluorophenyl)-6-oxo-pyridazine-3-carboxamide]", "values": [{"measurement": "cell viability", "setting": "[3]; INK-128 (3.2-100 nM) in combination with Example 295 (0-300 nM) compared to INK-128 alone, 72 h, FIG. 1", "value": "decreased"}, {"measurement": "cell viability", "setting": "[3]; sotorasib (0.14-10 nM) in combination with Example 295 (0-300 nM) compared to sotorasib alone, FIG. 2", "value": "decreased"}, {"measurement": "IC50", "setting": "KRAS^G12C::SOS1", "value": "< 1000", "unit": "nM"}]}
